Here are results for one compound from article PMC9609178, “Tumor-Specific Monomethyl Auristatin E (MMAE) Prodrug Nanoparticles for Safe and Effective Chemotherapy” (Pharmaceutics, 2022).

One data set concerns H9C2 cells. Put plainly: Cytotoxicity, CCK-8 assay, H9C2 cells. The data set is classed as cell-based, rat. The note with it: 24 h incubation; CCK-8, 450 nm; read-out: IC50, cell viability, H9C2 cells. The procedure:
(§1) First, […] 4T1 or H9C2 cells were seeded in the 96-well cell culture plates. […] Finally, the cell viability of each cell was measured using a microplate reader with 450 nm of wavelength (VERSAmaxTM; Molecular Devices Corp., San Jose, CA, USA).

The conditions of data set [1]: cited from earlier work. The text has this: Monomethyl auristatin E (MMAE), a synthetic analog of the natural product dolastatin 10, is a potent antimitotic agent that inhibits tubulin polymerization.
A further data set has as its system 4T1 tumor. The data set is described as follows: Antitumor efficacy in 4T1 breast tumor models. The data set is classed as in vivo, mice. As for the experimental part:
(§2) The antitumor efficacy was evaluated in the breast tumor models. The breast tumor models were prepared via subcutaneous injection of 1 × 10^6 4T1 cells. […] The mice were treated once every three days, and tumor volumes were calculated as the smallest diameter^2 × largest diameter × 0.53. The mice with a tumor volume of 2000 mm^3 or larger were counted as dead. […] The major organs were collected from mice on day 5 after treatments, and structural abnormality in the organ tissues was assessed by staining with H&E.

Data set [2] deals with 4T1 cells. Put plainly: Cytotoxicity, CCK-8 assay, 4T1 cells. The data set is classed as cell-based, murine. The note with it: 24 h incubation; CCK-8, 450 nm; read-out: IC50, cell viability, 4T1 cells. The procedure:
as §1

Data set [3] has as its system 4T1 cells. Put plainly: Tubulin formation in 4T1 cells (anti-tubulin antibody staining). The note with it: after 24 h of treatment; Cy5.5 anti-tubulin antibody. Format: cell-based, murine. As for the experimental part: Then, cells were fixed with 4% paraformaldehyde fixative for 25 min, and stained with DAPI solution (Invitrogen, Carlsbad, CA, USA) for 15 min in the dark. Finally, the 4T1 cells were observed using a confocal laser scanning microscope (CLSM) equipped with 405 diode (405 nm) and HeNe-Red (633 nm) lasers (Leica, Wetzlar, Germany).

Data set [4] is described as follows: Toxicity study in 4T1 tumor-bearing mice (histology, hematology, body weight, survival). Format: in vivo. The procedure: as §2

Square brackets hold non-standard residues; d marks the D form. Peptide text beside a SMILES is read from it. * marks the point of attachment. Dolaproine = CO[C@@H]([C@@H]1CCCN1)[C@@H](C)C(=O)O; Dil = CC[C@H](C)[C@H](NC)[C@@H](CC(=O)O)OC; X1 = C[C@@H](N*)[C@@H](O)c1ccccc1; NMeV = CN[C@H](C(=O)O)C(C)C

Regarding `CC[C@H](C)[C@@H]([C@@H](CC(=O)N1CCC[C@H]1[C@H](OC)[C@@H](C)C(=O)N[C@H](C)[C@@H](O)c1ccccc1)OC)N(C)C(=O)[C@@H](NC(=O)[C@@H](NC)C(C)C)C(C)C` [MMAE, Monomethyl auristatin E] (H-[NMeV]V[Dil][Dolaproine]-X1), the concentration for half-maximal inhibition (IC50) was 1.17 nM in the data set with H9C2 cells and 0.92 nM in the data set with 4T1 cells [2]. In addition, the “Antitumor efficacy, times more potent than doxorubicin” value in data set [1] is on record as 100–1000 times. Further, the “Tumor growth during monitoring for 15 days” value in the data set with 4T1 tumor (0.1 mg/kg MMAE once every three days, 15 days) is recorded as “rapid tumor growth compared to FRRG-MMAE-treated mice”. In the data set with 4T1 tumor (0.2 mg/kg based on MMAE contents, once every three days, day 5), the “Tumor volume on day 5 after treatment” value turned out to be 154.73 ± 31.63 mm^3. In the data set on 4T1 cells [3], the “Tubulin formation in 4T1 cells compared to naive cells” value is on record as “significantly inhibited”. Moreover, the Body weight entry in data set [4] (0.2 mg/kg MMAE equivalent once every three days) was “significant body weight loss”. Moreover, in data set [4] (0.2 mg/kg MMAE equivalent once every three days, 15 days), the Mice survival entry is reported as “all the mice were dead within five days”. The “Hematological parameters (ALB, AST, ALT)” value in data set [4] (0.2 mg/kg MMAE equivalent, after five days of treatment) is “significant changes”. In addition, the “Structural abnormalities in normal organs (liver, lung, spleen, kidney and heart), H&E” value in data set [4] (0.2 mg/kg once every three days, after five days of treatment) is reported as “severe systemic toxicity”.

The term IC50 denotes the concentration at which inhibition is half-maximal.
